Measurements as given in PMC7215373, “Design, Synthesis, and Anticancer Evaluation of Novel Indole Derivatives of Ursolic Acid as Potential Topoisomerase II Inhibitors” (International Journal of Molecular Sciences, 2020).

Columns and labels:
[1] = tested on: LO2 cells; experiment: MTT cytotoxicity assay, normal hepatocyte LO2; format: cell-based; settings: Homo sapiens, L02, 48 h exposure, normal hepatocyte cell line
Procedure: (§1) The in vitro cytotoxic activities of synthesized compounds were evaluated against two human hepatocarcinoma cell lines (SMMC-7721 and HepG2) and the human normal hepatocyte cell line (LO2) via MTT assay. All tested compounds were dissolved in DMSO and the stock solutions were diluted by DMEM medium before treatment of the cultured cells. […] Cell lines were obtained from American Tissue Culture Collection (ATCC). Briefly, different tumor cells were grown in DMEM medium supplemented with 10% fetal bovine serum, penicillin (100 U/mL), and streptomycin (50 μg/mL). Cells were harvested at log phase of growth and seeded in 96-well plates (100 μL/well at a density of 2 × 10^5 cells/mL). After 24 h incubation at 37 °C and 5% CO2 to allow cell attachment, cultures were exposed to various concentrations of the isolated compounds for 48 h. Finally, MTT solution (2.5 mg/mL in PBS) was added (40 μL/well). Plates were further incubated for 4 h at 37 °C, and the formazan crystals formed were dissolved by adding 150 μL/well of DMSO. Absorption at 570 nm was measured with an ELISA plate reader. […] Doxorubicin, camptothecin, and etoposide (VP-16) were co-assayed as positive controls.

[2] = tested on: SMMC-7721 cells; experiment: MTT cytotoxicity assay, SMMC-7721; format: cell-based, human; settings: 48 h exposure
Procedure: as §1

[3] = target: T1, Human Topoisomerase IIα (Homo sapiens, UniProt P11388); experiment: Topoisomerase II relaxation assay (supercoiled pBR322); format: biochemical; settings: for inhibition at 20 µM: 20 μM compound, read-out: Topo II Inhibition (%) 20 μM; for inhibition at 100 µM: 100 μM compound, read-out: Topo II Inhibition (%) 100 μM
T1 construct: purchased USB, Affymetrix, Waltham, MA, USA
T1 sequence (P11388 whole entry): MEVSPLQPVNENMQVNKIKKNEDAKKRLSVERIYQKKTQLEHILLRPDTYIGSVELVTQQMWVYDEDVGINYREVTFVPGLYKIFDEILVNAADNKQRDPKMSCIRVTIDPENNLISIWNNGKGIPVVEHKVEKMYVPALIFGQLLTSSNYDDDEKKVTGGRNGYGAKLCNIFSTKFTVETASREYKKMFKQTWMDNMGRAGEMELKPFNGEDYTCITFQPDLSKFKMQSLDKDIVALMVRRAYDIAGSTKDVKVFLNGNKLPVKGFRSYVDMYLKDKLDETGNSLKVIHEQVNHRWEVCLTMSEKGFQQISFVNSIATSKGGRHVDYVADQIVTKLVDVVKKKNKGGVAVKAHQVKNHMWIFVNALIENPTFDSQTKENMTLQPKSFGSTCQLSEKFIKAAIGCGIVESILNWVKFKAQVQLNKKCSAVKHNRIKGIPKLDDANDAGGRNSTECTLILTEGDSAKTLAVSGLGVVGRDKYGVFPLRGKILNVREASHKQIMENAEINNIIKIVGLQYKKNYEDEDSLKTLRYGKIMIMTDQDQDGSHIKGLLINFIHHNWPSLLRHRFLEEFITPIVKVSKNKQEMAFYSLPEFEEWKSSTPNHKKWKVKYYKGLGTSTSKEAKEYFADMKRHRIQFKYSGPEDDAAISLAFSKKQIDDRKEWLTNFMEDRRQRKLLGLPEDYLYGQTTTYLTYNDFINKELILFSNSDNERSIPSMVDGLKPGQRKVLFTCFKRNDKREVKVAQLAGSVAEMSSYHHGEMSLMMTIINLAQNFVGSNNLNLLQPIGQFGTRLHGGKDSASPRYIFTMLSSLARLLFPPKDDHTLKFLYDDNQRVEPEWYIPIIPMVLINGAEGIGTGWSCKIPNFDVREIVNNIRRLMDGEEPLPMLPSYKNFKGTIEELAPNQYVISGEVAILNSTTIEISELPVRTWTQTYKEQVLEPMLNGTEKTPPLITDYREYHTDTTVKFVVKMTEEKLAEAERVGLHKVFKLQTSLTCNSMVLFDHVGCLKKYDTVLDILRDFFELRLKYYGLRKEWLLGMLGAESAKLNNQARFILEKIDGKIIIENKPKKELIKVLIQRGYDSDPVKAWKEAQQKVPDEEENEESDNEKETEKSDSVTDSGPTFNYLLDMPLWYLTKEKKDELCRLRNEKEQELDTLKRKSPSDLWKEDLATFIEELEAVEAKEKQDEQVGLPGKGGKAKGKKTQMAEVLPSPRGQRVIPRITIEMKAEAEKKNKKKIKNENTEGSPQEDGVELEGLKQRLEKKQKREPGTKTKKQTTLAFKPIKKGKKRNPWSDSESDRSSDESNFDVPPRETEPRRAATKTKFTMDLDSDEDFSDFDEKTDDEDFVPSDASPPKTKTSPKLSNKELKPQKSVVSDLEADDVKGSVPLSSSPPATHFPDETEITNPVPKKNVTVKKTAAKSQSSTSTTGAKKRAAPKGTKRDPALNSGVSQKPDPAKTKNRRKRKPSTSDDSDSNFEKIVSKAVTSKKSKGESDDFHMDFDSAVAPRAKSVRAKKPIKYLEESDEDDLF
Procedure: The effect of the tested compounds on Topo I and II activities were evaluated by Topo I/II relaxation assays. The reaction products, relaxed DNA could be distinguished from supercoiled DNA by gel electrophoresis and visualized using gel imaging system. Human Topoisomerase IIα activity was detected by measuring the relaxation of supercoiled pBR322 plasmid DNA [22]. […] For inhibition studies, the compounds were pre-incubated with human Topo IIα and DNA for 15 min. Compounds were used at the appropriate concentrations by dissolving in 2% (v/v) DMSO. DMSO didn't show detrimental effect on the enzyme activity at concentration up to 2% (v/v). Reaction mixture was incubated at 37 °C for 30 min and stopped by the addition of 7 mM EDTA. Reaction product was mixed with DNA loading dye and electrophoresed on 1% TAE-Agarose. The gel was stained with ethidium bromide (0.5 μg/mL) for 30 min, destained twice in 1× TAE buffer, and then visualized using a BIO-RAD Gel Doc XR+ System. Etoposide (VP-16) was co-assayed as a positive control.

[4] = target: T2, DNA topoisomerase I (Bos taurus, UniProt F1MN93); experiment: Topoisomerase I relaxation assay (supercoiled pBR322); format: biochemical; settings: for inhibition at 100 µM: 100 μM compound, read-out: Topo I Inhibition (%) 100 μM; for inhibition at 20 µM: 20 μM compound, read-out: Topo I Inhibition (%) 20 μM
T2 construct: purchased TaKaRa, Kyoto, Japan
T2 sequence (F1MN93 1-767): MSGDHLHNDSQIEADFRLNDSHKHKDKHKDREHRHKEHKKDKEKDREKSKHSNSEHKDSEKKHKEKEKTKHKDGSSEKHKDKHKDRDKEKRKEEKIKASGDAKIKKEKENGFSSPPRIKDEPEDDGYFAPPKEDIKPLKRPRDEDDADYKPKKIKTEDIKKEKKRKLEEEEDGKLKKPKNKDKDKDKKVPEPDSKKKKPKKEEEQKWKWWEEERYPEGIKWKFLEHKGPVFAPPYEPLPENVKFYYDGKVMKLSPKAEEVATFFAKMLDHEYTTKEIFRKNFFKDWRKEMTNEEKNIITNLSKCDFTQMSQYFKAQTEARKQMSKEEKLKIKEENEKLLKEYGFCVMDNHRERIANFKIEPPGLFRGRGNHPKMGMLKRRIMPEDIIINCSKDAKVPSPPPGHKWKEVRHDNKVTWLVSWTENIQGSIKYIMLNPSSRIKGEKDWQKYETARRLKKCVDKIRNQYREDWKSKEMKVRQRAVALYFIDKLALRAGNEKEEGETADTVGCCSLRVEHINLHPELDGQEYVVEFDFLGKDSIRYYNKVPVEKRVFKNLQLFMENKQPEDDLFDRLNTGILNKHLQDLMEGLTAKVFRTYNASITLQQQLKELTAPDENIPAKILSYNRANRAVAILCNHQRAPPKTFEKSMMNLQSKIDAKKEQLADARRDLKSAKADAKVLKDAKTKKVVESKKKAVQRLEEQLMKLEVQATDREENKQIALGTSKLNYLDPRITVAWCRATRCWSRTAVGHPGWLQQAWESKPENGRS
Procedure: The effect of the tested compounds on Topo I and II activities were evaluated by Topo I/II relaxation assays. The reaction products, relaxed DNA could be distinguished from supercoiled DNA by gel electrophoresis and visualized using gel imaging system. The activity of DNA topoisomerase I (TaKaRa, Kyoto, Japan) was determined by measuring the relaxation of supercoiled DNA pBR322 [32]. Camptothecin was used as a positive control. The reaction mixture was prepared according to the manufacture's protocol, and incubated at 37 °C for 30 min. The reactions were terminated by adding dye solution containing 1% SDS, 0.02% bromophenol blue and 50% glycerol. The mixtures were applied to 1% agarose gel and subjected to electrophoresis for 1 h, in 1× TAE buffer (40 mM Tris-acetate, 1 mM EDTA). Gels were stained for 30 min in 60 mL 1× TAE buffer with ethidium bromide (0.5 μg/mL). DNA bands were visualized by transillumination with UV light and then photographed by a Gel Doc XR+ System (BIO-RAD, Hercules, CA, USA).

[5] = tested on: HepG2 cells; experiment: MTT cytotoxicity assay, HepG2; format: cell-based, human; settings: 48 h exposure
Procedure: as §1

SMILES	IC50 [1] [µM]	IC50 ([2]; Homo sapiens, SMMC-7721, 48 h) [µM]	melting point [°C]	inhibition at 20 µM [3] [%]	inhibition at 100 µM [3] [%]	inhibition at 100 µM [4] [%]	IC50 ([5]; Homo sapiens, HepG2, 48 h) [µM]	IC50 [2] [µM]	inhibition at 20 µM [4] [%]	IC50 [5] [µM]
Cc1ccc2[nH]c3c(c2c1)C[C@@]1(C)C(CC[C@]2(C)C1CC=C1C4[C@@H](C)[C@H](C)CC[C@]4(C(=O)NCCCCN4CCCCC4)CC[C@]12C)C3(C)C (stereo partly shown) [6d, N-(4-(Piperidin-1-yl)butyl)-5′-methyl-1′H-ursa-2,12-dieno[3,2-b]indol-28-carboxamide]	18.7 ± 1.36	2.72 ± 0.31	121 to 123	32.8	72.5	0	2.31 ± 0.21	–	–	–
Cc1ccc2[nH]c3c(c2c1)C[C@@]1(C)C(CC[C@]2(C)C1CC=C1C4[C@@H](C)[C@H](C)CC[C@]4(C(=O)NCCCN4CCOCC4)CC[C@]12C)C3(C)C (stereo partly shown) [5e, N-(3-Morpholinopropyl)-5′-methyl-1′H-ursa-2,12-dieno[3,2-b]indol-28-carboxamide]	28.6 ± 0.76	3.75 ± 0.37	108 to 110	31.5	70.8	0	5.27 ± 0.67	–	–	–
COc1cccc2c1C(=O)c1c(O)c3c(c(O)c1C2=O)C[C@@](O)(C(=O)CO)C[C@@H]3O[C@H]1C[C@H](N)[C@H](O)[C@H](C)O1 [DOX, doxorubicin, reference compound]	5.32 ± 0.67	0.68 ± 0.11	–	–	–	–	0.81 ± 0.19	–	–	–
CCN(CC)CCNC(=O)[C@]12CC[C@@H](C)[C@H](C)C1C1=CCC3[C@@]4(C)Cc5c([nH]c6ccc(C)cc56)C(C)(C)C4CC[C@@]3(C)[C@]1(C)CC2 (stereo partly shown) [4c, N-(2-(Diethylamino)ethyl)-5′-methyl-1′H-ursa-2,12-dieno[3,2-b]indol-28-carboxamide]	26.4 ± 1.32	2.1 ± 0.21	–	38.3	68.7	0	2.24 ± 0.32	–	–	–
CCN(CC)CCCNC(=O)[C@]12CC[C@@H](C)[C@H](C)C1C1=CCC3[C@@]4(C)Cc5c([nH]c6ccc(C)cc56)C(C)(C)C4CC[C@@]3(C)[C@]1(C)CC2 (stereo partly shown) [5c, N-(3-(Diethylamino)propyl)-5′-methyl-1′H-ursa-2,12-dieno[3,2-b]indol-28-carboxamide]	15.8 ± 1.06	1.15 ± 0.14	147 to 149	38.9	75.8	0	1.2 ± 0.24	–	–	–
Cc1ccc2[nH]c3c(c2c1)C[C@@]1(C)C(CC[C@]2(C)C1CC=C1C4[C@@H](C)[C@H](C)CC[C@]4(C(=O)NCCN4CCCCC4)CC[C@]12C)C3(C)C (stereo partly shown) [4d, N-(2-(Piperidin-1-yl)ethyl)-5′-methyl-1′H-ursa-2,12-dieno[3,2-b]indol-28-carboxamide]	16 ± 1.07	~1	195 to 197	32.7	71.7	13	~1	1.75 ± 0.11	0	1.47 ± 0.12
Cc1ccc2[nH]c3c(c2c1)C[C@@]1(C)C(CC[C@]2(C)C1CC=C1C4[C@@H](C)[C@H](C)CC[C@]4(C(=O)NCCCCN4CCN(C)CC4)CC[C@]12C)C3(C)C (stereo partly shown) [6f, N-(4-(4-Methylpiperazin-1-yl)butyl)-5′-methyl-1′H-ursa-2,12-dieno[3,2-b]indol-28-carboxamide]	13.7 ± 1.28	~1	–	39.8	81.8	0	~1	0.65 ± 0.07	–	1.01 ± 0.12
Cc1ccc2[nH]c3c(c2c1)C[C@@]1(C)C(CC[C@]2(C)C1CC=C1C4[C@@H](C)[C@H](C)CC[C@]4(C(=O)NCCCCN4CCOCC4)CC[C@]12C)C3(C)C (stereo partly shown) [6e, N-(4-Morpholinobutyl)-5′-methyl-1′H-ursa-2,12-dieno[3,2-b]indol-28-carboxamide]	35.4 ± 3.13	4.55 ± 1.56	–	28.2	65.6	0	7.84 ± 2.31	–	–	–
Cc1ccc2[nH]c3c(c2c1)C[C@@]1(C)C(CC[C@]2(C)C1CC=C1C4[C@@H](C)[C@H](C)CC[C@]4(C(=O)NCCN4CCN(C)CC4)CC[C@]12C)C3(C)C (stereo partly shown) [4f, N-(2-(4-Methylpiperazin-1-yl)ethyl)-5′-methyl-1′H-ursa-2,12-dieno[3,2-b]indol-28-carboxamide]	18.3 ± 0.78	~1	188 to 190	31.3	73.7	0	~1	1.24 ± 0.16	–	1.35 ± 0.17
COc1cc([C@@H]2c3cc4c(cc3[C@@H](O[C@@H]3O[C@@H]5CO[C@@H](C)O[C@H]5[C@H](O)[C@H]3O)[C@H]3COC(=O)[C@H]23)OCO4)cc(OC)c1O [VP-16, etoposide, reference compound]	5.92 ± 0.29	0.36 ± 0.1	–	47.8	88.5	–	0.57 ± 0.16	–	–	–
CC[C@@]1(O)C(=O)OCc2c1cc1n(c2=O)Cc2cc3ccccc3nc2-1 [CPT, camptothecin, reference compound]	8.93 ± 0.52	0.56 ± 0.18	–	–	–	75.1	1.12 ± 0.26	–	38.2	–
